Our source for the MIC values is publication PMC10500703 (Journal of medicinal chemistry, 2021).

Holding throughout (type): cell-based, Mycobacterium tuberculosis
The test system of one assay is Mtb EthA C253R.
The next assay deals with Mtb ∆cyd.
Assay [1] concerns Mtb InhA-OE (H37Rv-LP:fabG1/inhA-c-15t).

In turn, `CCc1cc(C(N)=S)ccn1` [ETH, Ethionamide] gave a minimum inhibitory concentration (MIC) against Mtb EthA C253R of more than 125 µM.
With “3-(1,3-bis(4-chlorophenyl)-1H-pyrazol-5-yl)-N-(methylsulfonyl)propanamide [Compound 8]”, the MIC was found to be 4 µM against Mtb ∆cyd and 0.24 µM in assay [1].
